Test results from paper PMC6600273, “Design, Synthesis and Anti-Platelet Aggregation Activity Study of Ginkgolide-1,2,3-triazole Derivatives” (Molecules, 2019).

Test system: PAF-induced platelet aggregation
Assay: In vitro antiplatelet aggregation activity assay (method of Born), PAF-induced platelet aggregation in platelet-rich plasma
Assay type: cell-based, New Zealand rabbits
Conditions: for IC50: rabbit PRP, aggregation induced by PAF (10 nM); for antiplatelet aggregation activity, inhibition ratio in primary screening (result in words): inhibition ratio at 50 nM, Figures 3 and 4
Experimental: The in vitro antiplatelet aggregation activity of the newly synthesized 10-substituted 1,2,3-triazole-ginkgolide derivatives was tested by the method of Born. Blood samples (2 mL) from male New Zealand rabbits (2–2.5 kg body weight) were drawn into vacutainer tubes containing 200 μL of 3.2% sodium citrate. Platelet-rich plasma (PRP) was prepared by centrifuging the blood at 250× g for 10 min at 4 °C. The PRP was diluted with platelet-poor plasma obtained by further centrifuging at 3000× g for 10 min. The remaining blood was further centrifuged at 1600× g for 5 min to obtain platelet-poor plasma (PPP) as control group. Platelet aggregation was induced by PAF (10 nM) after incubating platelets with different concentrations of samples, and the maximum rate of platelet aggregation (RPA%) within 5 min was measured with a Helena Platelet aggregometer instrument. The inhibition ratio was calculated according to the following formula:Inhibition ratio (%) = (1−(RPA% of test group) / (RPA% of control group)) × 100%
In primary screening, the activities were expressed directly as inhibition ratio at 50 nM concentration. […] The values shown in the tables were calculated by linear regression from a single experimental curve with no less than four data points, each point being the mean of the percentage inhibition at a given concentration obtained from three independent experiments.

[1] = Oryctolagus cuniculus, Platelet

Compound | IC50 [1] | antiplatelet aggregation activity, inhibition ratio in primary screening (result in words) | fold increase in antiplatelet aggregation activity in comparison with natural ginkgolide B (1) (ratio of IC50 values vs ginkgolide B) | IC50
CC1C(=O)OC2C(O)C34C5CC(C(C)(C)C)C36C(OC(=O)C6OCc3cn(Cc6ccccc6)nn3)OC4(C(=O)O5)C12O (stereo not shown) [Compound 5ff, 10-O-(1-Benzyl-1H-1,2,3-triazole) ginkgolide B] | 5.31 ± 1.84 nM | best results | ~20 fold | 
ginkgolide C [1″, reference compound] |  |  |  | 7540 ± 662 nM
Cc1cccc(-n2cc(COC3C(=O)OC4OC56C(=O)OC7CC(C(C)(C)C)C43C75C(O)C3OC(=O)C(C)C36O)nn2)c1 (stereo not shown) [Compound 5q, 10-O-(1-(3-Methylphenyl)-1H-1,2,3-triazole) ginkgolide B] | 44.3 ± 4.42 nM |  |  | 
CC1C(=O)OC2C(O)C34C5CC(C(C)(C)C)C36C(OC(=O)C6OCc3cn(-c6ccccc6)nn3)OC4(C(=O)O5)C12O (stereo not shown) [Compound 5a, 10-O-(1-Phenyl-1H-1,2,3-triazole) ginkgolide B] | 7.74 ± 1.89 nM | best results |  | 
Cc1ccccc1-n1cc(COC2C(=O)OC3OC45C(=O)OC6CC(C(C)(C)C)C32C64C(O)C2OC(=O)C(C)C25O)nn1 (stereo not shown) [Compound 5n, 10-O-(1-(2-Methylphenyl)-1H-1,2,3-triazole) ginkgolide B] | 20.6 ± 2.84 nM | best results |  | 
ginkgolide B [Compound 1, reference compound] |  |  |  | 130 ± 20 nM
C[C@@H]1C(=O)O[C@H]2C[C@@]34[C@H]5C[C@@H](C(C)(C)C)[C@]36[C@@H](OC(=O)[C@@H]6O)O[C@@]4(C(=O)O5)[C@]21O [1′, ginkgolide A, reference compound] | 580 ± 50.3 nM |  |  | 
CC1C(=O)OC2C(O)C34C5CC(C(C)(C)C)C36C(OC(=O)C6OCc3cn(-c6ccccc6C#N)nn3)OC4(C(=O)O5)C12O (stereo not shown) [Compound 5p, 10-O-(1-(2-Cyanophenyl)-1H-1,2,3-triazole) ginkgolide B] | 10.2 ± 2.03 nM | best results |  | 
